Laboratory results: patent publication US20250099356A1, “PERSONAL CARE COMPOSITION WITH N-CAPRYLOYL L-GLUTAMINE AND GLYCERYL MONOUNDECYLENATE AS PRESERVATIVE” (GALAXY SURFACTANTS LTD., priority 2024, published 2025)

Experiments:
Malassezia yeast = experiment: Minimum inhibitory concentration, Malassezia yeast; assay type: cell-based; conditions: species not given
Description: (§1) The MIC (minimum inhibitory concentrations) of N-capryloyl L-glutamine and glyceryl monoundecylenate and 1:1 mixture (by weight) of the two antimicrobials against various microbes are determined as per PCPC (Personal Care Product Council, Washington, USA) protocol.

[1] = test system: Pseudomonas aeruginosa ATCC 15442; experiment: Minimum inhibitory concentration (PCPC protocol); assay type: cell-based; conditions: Gram negative
Description: as §1

[2] = test system: Aspergillus niger ATCC 16404; experiment: Minimum inhibitory concentration (PCPC protocol); assay type: cell-based; conditions: Mold
Description: as §1

[3] = test system: Cutibacterium acnes ATCC 6919; experiment: Minimum inhibitory concentration (PCPC protocol); assay type: cell-based; conditions: Gram positive
Description: as §1

[4] = test system: Burkholderia cepacia ATCC 25416; experiment: Minimum inhibitory concentration (PCPC protocol); assay type: cell-based; conditions: Gram negative
Description: as §1

[5] = test system: Corynebacterium xerosis ATCC 373; experiment: Minimum inhibitory concentration (PCPC protocol); assay type: cell-based; conditions: Gram positive
Description: as §1

[6] = test system: Malassezia restricta ATCC MYA 4611; experiment: Minimum inhibitory concentration (PCPC protocol); assay type: cell-based; conditions: Yeast
Description: as §1

[7] = test system: Micrococcus luteus NCIM 2103; experiment: Minimum inhibitory concentration (PCPC protocol); assay type: cell-based; conditions: Gram positive
Description: as §1

[8] = test system: Candida albicans ATCC 10231; experiment: Minimum inhibitory concentration (PCPC protocol); assay type: cell-based; conditions: Yeast
Description: as §1

[9] = test system: Gardnerella vaginalis ATCC 14018; experiment: Minimum inhibitory concentration (PCPC protocol); assay type: cell-based; conditions: Gram variable
Description: as §1

[10] = test system: Malassezia furfur ATCC 14521; experiment: Minimum inhibitory concentration (PCPC protocol); assay type: cell-based; conditions: Yeast
Description: as §1

[11] = test system: Escherichia coli ATCC 8739; experiment: Minimum inhibitory concentration (PCPC protocol); assay type: cell-based; conditions: Gram negative
Description: as §1

[12] = test system: Staphylococcus epidermidis NCIM 2493; experiment: Minimum inhibitory concentration (PCPC protocol); assay type: cell-based; conditions: Gram positive, b76: at skin pH of 5.5
Description: as §1

[13] = test system: Candida glabrata ATCC 66032; experiment: Minimum inhibitory concentration (PCPC protocol); assay type: cell-based; conditions: Yeast
Description: as §1

[14] = test system: Staphylococcus aureus ATCC 6538; experiment: Minimum inhibitory concentration (PCPC protocol); assay type: cell-based; conditions: Gram positive; b76: at skin pH of 5.5
Description: as §1

[15] = test system: Staphylococcus hominis MTCC 8980; experiment: Minimum inhibitory concentration (PCPC protocol); assay type: cell-based; conditions: Gram positive
Description: as §1

bacteria, yeast and mold = experiment: Challenge test (preservation efficacy) in cleansing surfactant composition of Table 2a; assay type: cell-based; conditions: for challenge test / preservation efficacy test: 1.5% level in the same formulation, pH 5.5 and 7.0
Description: In an embodiment several personal care compositions of various types have been tested for the preservation efficacy of the combination of N-capryloyl L-glutamine and glyceryl monoundecylenate using PCPC (Personal Care Products Council, Washington DC, formerly known as CTFA) protocol ('Evaluation of preservatives to protect cosmetics' by D. Orth in Cosmetics and Toiletries, March 91). […] Both ‘rinse-off’ and ‘leave-on’ formulations (Examples 5 to 10) passed the challenge tests. Using the typical surfactant composition two sets are prepared at different pHs, 5.5 and 7.0. Antimicrobials individually and in combination are tested for preservation efficacy. [table]

[16] = Biodegradability, OECD 301D-Closed Bottle Test
Description: N-capryloyl L-glutamine and glyceryl monoundecylenate, derived from renewable sources, are compatible with most used ingredients of the personal care compositions.

[17] = antimicrobial 1.5% in total in cleansing formulation of Table 2a, pH 5.5
[18] = antimicrobial 1.5% in total in cleansing formulation of Table 2a, pH 7.0
[19] = antimicrobial 2.0% in cleansing formulation of Table 2a, pH 5.5
[20] = antimicrobial 2.0% in total in cleansing formulation of Table 2a, pH 7.0
[21] = deployed alone at 2% in the surfactant composition, at both acidic and neutral pH (5.5 and 7.0)

Row | MIC against Malassezia yeast (Malassezia yeast) | MIC in % Pseudomonas aeruginosa ATCC 15442 [1] | MIC in % Aspergillus niger ATCC 16404 [2] | MIC in % Cutibacterium acnes ATCC 6919 [3] | MIC in % Burkholderia cepacia ATCC 25416 [4] | MIC in % Corynebacterium xerosis ATCC 373 [5] | MIC in % Malassezia restricta ATCC MYA 4611 [6] | MIC in % Micrococcus luteus NCIM 2103 [7] | MIC in % Candida albicans ATCC 10231 [8] | MIC in % Gardnerella vaginalis ATCC 14018 [9] | MIC in % Malassezia furfur ATCC 14521 [10] | MIC in % Escherichia coli ATCC 8739 [11] | MIC in % Staphylococcus epidermidis NCIM 2493 [12] | MIC in % Candida glabrata ATCC 66032 [13] | MIC in % Staphylococcus aureus ATCC 6538 [14] | MIC in % Staphylococcus hominis MTCC 8980 [15] | SMILES | challenge test / preservation efficacy test (bacteria, yeast and mold) | Challenge Test (bacteria, yeast and mold; [17]) | Challenge Test (bacteria, yeast and mold; [18]) | Challenge Test (bacteria, yeast and mold; [19]) | other results
1 | 0.2% | 0.7% | 1% | 0.2% | 1% | 0.5% | 0.4% | 0.5% | 0.6% | 0.6% | 0.3% | 0.7% | 0.9% | 0.6% | 0.3% | 0.6% | CCCCCCCC(=O)N[C@@H](CCC(N)=O)C(=O)O [CG, N-capryloyl L-glutamine] | fail to pass the challenge test | Passes | Fails | Passes | MIC in % Staphylococcus epidermidis NCIM 2493 ([12]; listed as N-capryloyl L-glutamine): 1.0%; Challenge Test (bacteria, yeast and mold; [20]): Passes; Challenge Test (bacteria, yeast and mold; [21]): preserve the composition; biodegradability as per OECD 301D-Closed Bottle Test [16]: completely biodegradable
2 | 0.2% | 1% | 0.8% | 0.9% | 1% | 0.5% | 0.2% | 0.5% | 1% | 0.3% | 0.2% | 1% | 1% | 0.4% | 0.1% | 0.7% | C=CCCCCCCCCC(=O)OCC(O)CO (stereo not shown) [GMU, glyceryl monoundecylenate] | fail to pass the challenge test | Fails | Fails | Passes | MIC in % Staphylococcus epidermidis NCIM 2493 ([12]; listed as glyceryl mono undecylenate): 1.0%; MIC in % Staphylococcus epidermidis NCIM 2493 ([12]; listed as glyceryl monoundecylenate): 0.9%; Challenge Test (bacteria, yeast and mold; [20]): Passes; Challenge Test (bacteria, yeast and mold; [21]): preserve the composition; biodegradability as per OECD 301D-Closed Bottle Test [16]: completely biodegradable
